Experimental data published in patent US20070059369A1, “Subcutaneous delivery system, process for the preparation of the same and use of the same for the treatment of cholinergic deficient disorders” (priority 2003, published 2007).

Key:
[1] = test system: cerebral hypoxia-ischemia rat model; conditions: cited from earlier work
[2] = aged patients and patients suffering from Alzheimer's disease; cited from earlier work
acetylcholinesterase = acetylcholinesterase (Homo sapiens, UniProt P22303); conditions: from EP 0 806 416; cited from earlier work
acetylcholinesterase, sequence (P22303 32-614): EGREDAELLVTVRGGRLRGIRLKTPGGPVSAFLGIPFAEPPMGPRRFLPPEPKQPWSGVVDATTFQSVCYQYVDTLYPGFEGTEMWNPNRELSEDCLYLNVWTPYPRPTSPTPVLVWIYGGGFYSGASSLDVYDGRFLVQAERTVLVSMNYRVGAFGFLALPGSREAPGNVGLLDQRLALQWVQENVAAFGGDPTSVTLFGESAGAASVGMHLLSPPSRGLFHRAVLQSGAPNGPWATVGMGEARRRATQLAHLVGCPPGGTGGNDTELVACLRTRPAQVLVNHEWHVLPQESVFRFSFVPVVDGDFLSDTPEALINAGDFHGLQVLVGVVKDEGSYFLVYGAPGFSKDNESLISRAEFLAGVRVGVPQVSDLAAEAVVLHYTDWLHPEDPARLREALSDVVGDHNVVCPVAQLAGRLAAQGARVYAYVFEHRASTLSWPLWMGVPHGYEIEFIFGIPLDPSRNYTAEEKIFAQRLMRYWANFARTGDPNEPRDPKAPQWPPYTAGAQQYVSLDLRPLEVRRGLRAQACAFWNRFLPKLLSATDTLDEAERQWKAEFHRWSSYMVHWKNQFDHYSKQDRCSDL

[3] = target: butyrylcholinesterase (BuChE) (Homo sapiens, UniProt P06276); test: Inhibition of butyrylcholinesterase; assay type: biochemical; conditions: in contrast to AChE
butyrylcholinesterase (BuChE), sequence (P06276 29-602): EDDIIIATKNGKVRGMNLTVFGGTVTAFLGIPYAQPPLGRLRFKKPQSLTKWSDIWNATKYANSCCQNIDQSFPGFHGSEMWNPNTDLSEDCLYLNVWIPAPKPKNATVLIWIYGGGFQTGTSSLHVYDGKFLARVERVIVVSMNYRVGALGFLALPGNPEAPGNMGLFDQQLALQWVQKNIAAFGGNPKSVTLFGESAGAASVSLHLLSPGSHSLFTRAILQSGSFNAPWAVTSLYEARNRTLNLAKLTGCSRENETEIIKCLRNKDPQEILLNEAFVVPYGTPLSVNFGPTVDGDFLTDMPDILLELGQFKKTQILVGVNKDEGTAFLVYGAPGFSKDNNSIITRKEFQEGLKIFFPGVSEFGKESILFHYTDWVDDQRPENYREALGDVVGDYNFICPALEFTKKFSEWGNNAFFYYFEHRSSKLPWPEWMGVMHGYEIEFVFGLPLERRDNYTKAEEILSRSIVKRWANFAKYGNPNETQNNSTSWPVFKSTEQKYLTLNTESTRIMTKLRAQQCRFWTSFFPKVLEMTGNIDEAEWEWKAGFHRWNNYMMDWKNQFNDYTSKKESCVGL

[4] = test system: acetylcholinesterase (AChE); test: Inhibition of acetylcholinesterase; assay type: biochemical; conditions: different species (rat, bovine and human)

SMILES: C/C=C1\[C@H]2C=C(C)C[C@]1(N)c1ccc(=O)[nH]c1C2 [Huperzine A]
- Neuroprotective effect of rescue treatment [1]: beneficial neuroprotective effect
- Memory-enhancing effects [2]: memory-enhancing effects

SMILES: C/C=C1\C2C=C(C)CC1(/N=C/c1cc(Cl)cc(OC)c1O)c1ccc(=O)[nH]c1C2 (centres unmarked) [derivative of formula (III)]
- Selectivity for acetylcholinesterase compared to butyrylcholinesterase (acetylcholinesterase): highly selective activity in favour of acetylcholinesterase
- Inhibitory activity on butyrylcholinesterase (BuChE) [3]: much weaker inhibitory activity
- Inhibition of acetylcholinesterase (AChE) [4]: potent and selective inhibitor
